Measured values reported in PubChem BioAssay AID328 (DTP/NCI, 2004).
Values joined by “and” are separate entries in the source; they are usually repeats but may differ in a detail not shown here. Equal values may be shown once. Inconclusive results and toxic doses are left out.

Test system: BDF1 mice, P388 leukemia ip, median survival T/C
Assay: NCI In Vivo Anticancer Drug Screen. Data for tumor model P388 Leukemia (intraperitoneal) in B6D2F1 (BDF1) mice
Conditions: endpoint: median survival time, higher = longer survival
Summary of the method: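 Mice carrying the transplantable tumour receive compound or vehicle. Survival is followed in each arm, and the treated measure is divided by the vehicle measure.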

[1] = dose: 25.0 mg/kg/injection, schedule: Q01DX005 (ip), vehicle: saline with Tween-80
[2] = dose: 50.0 mg/kg/injection, schedule: Q01DX005 (ip), vehicle: saline with Tween-80
[3] = dose: 25.0 mg/kg/injection, schedule: Q04DX003 (ip), vehicle: saline with Tween-80
[4] = dose: 50.0 mg/kg/injection, schedule: Q04DX003 (ip), vehicle: saline with Tween-80
[5] = dose: 12.5 mg/kg/injection, schedule: Q01DX009 (ip), vehicle: Klucel (hydroxypropylcellulose) (HPC)
[6] = dose: 25.0 mg/kg/injection, schedule: Q01DX009 (ip), vehicle: Klucel (hydroxypropylcellulose) (HPC)
[7] = dose: 50.0 mg/kg/injection, schedule: Q01DX009 (ip), vehicle: Klucel (hydroxypropylcellulose) (HPC)
[8] = dose: 200.0 mg/kg/injection, schedule: Q01DX009 (ip), vehicle: Klucel (hydroxypropylcellulose) (HPC)
[9] = dose: 50.0 mg/kg/injection, schedule: Q01DX009 (ip), vehicle: saline with Tween-80
[10] = dose: 100.0 mg/kg/injection, schedule: Q01DX009 (ip), vehicle: saline with Tween-80
[11] = dose: 200.0 mg/kg/injection, schedule: Q01DX009 (ip), vehicle: saline with Tween-80
[12] = dose: 6.25 mg/kg/injection, schedule: Q01DX009 (ip), vehicle: saline with Tween-80
[13] = dose: 12.5 mg/kg/injection, schedule: Q01DX009 (ip), vehicle: saline with Tween-80
[14] = dose: 25.0 mg/kg/injection, schedule: Q01DX009 (ip), vehicle: saline with Tween-80
[15] = dose: 25.0 mg/kg/injection, schedule: Q01DX009 (ip), vehicle: saline
[16] = dose: 100.0 mg/kg/injection, schedule: Q04DX003 (ip), vehicle: saline with Tween-80
[17] = dose: 200.0 mg/kg/injection, schedule: Q04DX003 (ip), vehicle: saline with Tween-80
[18] = dose: 400.0 mg/kg/injection, schedule: Q01DX009 (ip), vehicle: saline with Tween-80
[19] = dose: 400.0 mg/kg/injection, schedule: Q04DX003 (ip), vehicle: saline with Tween-80

In the case of CCCCCCCCCCCCCCCCN(C)CCO, the T/C (dose: 50.0 mg/kg/injection, schedule: Q01DX009 (ip), vehicle: saline + alcohol) is reported as 97 % of control.

With C[N+](C)(CC(=O)Nc1ccc(Cl)c(Cl)c1)CC(=O)c1ccc(Cl)c(Cl)c1 the T/C (dose: 400.0 mg/kg/injection, schedule: Q04DX003 (ip), vehicle: saline sonified) was 87 % of control.

In the case of CC1(C)COP(OCC(F)(F)F)OC1, the T/C [1] is reported as 92 % of control, the T/C [2] is reported as 94 % of control and the T/C (dose: 100.0 mg/kg/injection, schedule: Q01DX005 (ip), vehicle: saline with Tween-80) is reported as 94 % of control.

With CCCCN(C(C)(C)C(SSSC(c1ccc(Cl)cc1)C(C)(C)N(CCCC)S(C)(=O)=O)c1ccc(Cl)cc1)S(C)(=O)=O (configuration not stated) the T/C [3] was 100 % of control and the T/C [4] was 100 % of control.

For N#Cc1sc2ccccc2c1CBr, the T/C [5] was 104 % of control, the T/C (dose: 18.75 mg/kg/injection, schedule: Q04DX003 (ip), vehicle: Klucel (hydroxypropylcellulose) (HPC)) was 108 % of control and the T/C [6] was 108 % of control. The T/C (dose: 37.5 mg/kg/injection, schedule: Q04DX003 (ip), vehicle: Klucel (hydroxypropylcellulose) (HPC)) was 108 % of control.

In the case of COc1cccc2c1CCCC2=O, the T/C [7] is reported as 96 % of control, the T/C (dose: 100.0 mg/kg/injection, schedule: Q01DX009 (ip), vehicle: Klucel (hydroxypropylcellulose) (HPC)) is reported as 104 % of control and the T/C [8] is reported as 104 % of control.

With Nc1cc(=O)n(-c2ccccc2)[nH]1 the T/C [9] was 105 % of control, the T/C [10] was 102 % of control and the T/C [11] was 109 % of control.

In the case of CC(C)(C)OC(=O)NOc1ccc([N+](=O)[O-])cc1[N+](=O)[O-], the T/C (dose: 3.12 mg/kg/injection, schedule: Q01DX009 (ip), vehicle: saline with Tween-80) is reported as 117 % of control, the T/C [12] is reported as 90 % of control and the T/C (dose: 6.25 mg/kg/injection, schedule: Q04DX003 (ip), vehicle: saline with Tween-80) is reported as 100 % of control. The T/C [13] was 106 % of control and 93 % of control, the T/C (dose: 12.5 mg/kg/injection, schedule: Q04DX003 (ip), vehicle: saline with Tween-80) was 104 % of control and the T/C [14] was 90 % of control and 96 % of control. The T/C [3] was 97 % of control, the T/C [9] was 93 % of control and the T/C [4] was 97 % of control. For the same molecule, the T/C [10] was 100 % of control.

CCOC(=O)/C=C/c1c[nH]c(=O)[nH]c1=O was tested, and the T/C [15] was 101 % of control, the T/C (dose: 50.0 mg/kg/injection, schedule: Q01DX009 (ip), vehicle: saline) was 101 % of control and the T/C (dose: 100.0 mg/kg/injection, schedule: Q01DX009 (ip), vehicle: saline) was 101 % of control. For the same molecule, the T/C (dose: 100.0 mg/kg/injection, schedule: Q04DX003 (ip), vehicle: saline) was 114 % of control, the T/C (dose: 200.0 mg/kg/injection, schedule: Q01DX009 (ip), vehicle: saline) was 104 % of control and the T/C (dose: 200.0 mg/kg/injection, schedule: Q04DX003 (ip), vehicle: saline) was 96 % of control. The T/C (dose: 400.0 mg/kg/injection, schedule: Q04DX003 (ip), vehicle: saline) was 96 % of control.

In the case of Clc1cc(CBr)c(Cl)c(Cl)c1CBr, the T/C (dose: 6.25 mg/kg/injection, schedule: Q01DX009 (ip), vehicle: Klucel (hydroxypropylcellulose) (HPC)) is reported as 109 % of control, the T/C (dose: 6.25 mg/kg/injection, schedule: Q01DX009 (ip), vehicle: saline) is reported as 100 % of control and the T/C (dose: 6.25 mg/kg/injection, schedule: Q04DX003 (ip), vehicle: saline sonified) is reported as 95 % of control. The T/C [5] was 109 % of control, the T/C (dose: 12.5 mg/kg/injection, schedule: Q01DX009 (ip), vehicle: saline) was 103 % of control and the T/C (dose: 12.5 mg/kg/injection, schedule: Q04DX003 (ip), vehicle: saline sonified) was 100 % of control. The T/C [15] was 110 % of control and the T/C (dose: 25.0 mg/kg/injection, schedule: Q04DX003 (ip), vehicle: saline sonified) was 100 % of control.

In the case of O=C(Cn1ccc(O)cc1=O)c1ccco1, the T/C [10] is reported as 100 % of control, the T/C [16] is reported as 100 % of control and the T/C [11] is reported as 95 % of control. For the same molecule, the T/C [17] was 109 % of control, the T/C [18] was 104 % of control and the T/C [19] was 104 % of control.

For Cc1cc(C)c(CCl)cc1CCl, the T/C (dose: 3.0 mg/kg/injection, schedule: Q01DX009 (ip), vehicle: saline with Tween-80) was 104 % of control, the T/C (dose: 4.5 mg/kg/injection, schedule: Q01DX009 (ip), vehicle: saline with Tween-80) was 116 % of control and the T/C [12] was 118 % of control. For the same molecule, the T/C (dose: 16.5 mg/kg/injection, schedule: Q01DX009 (ip), vehicle: saline with Tween-80) was 150 % of control and the T/C (dose: 37.5 mg/kg/injection, schedule: Q01DX009 (ip), vehicle: saline with Tween-80) was 120 % of control.

CCN(CC)CC(C)=C(B1OC(C)(C)C(C)(C)O1)B1OC(C)(C)C(C)(C)O1 was tested, and the T/C (dose: 50.0 mg/kg/injection, schedule: Q01DX001 (ip), vehicle: saline) was 110 % of control, the T/C (dose: 100.0 mg/kg/injection, schedule: Q01DX001 (ip), vehicle: saline) was 105 % of control and the T/C (dose: 200.0 mg/kg/injection, schedule: Q01DX001 (ip), vehicle: saline) was 100 % of control.

Clc1ccc(-c2nc3ncccn3n2)cc1 was tested, and the T/C [13] was 106 % of control, the T/C [14] was 95 % of control and the T/C [9] was 91 % of control and 95 % of control. For the same molecule, the T/C [11] was 101 % of control.

For O=C1NC(=O)C2(CCCCC2)N1, the T/C [6] was 91 % of control, the T/C (dose: 25.0 mg/kg/injection, schedule: Q04DX003 (ip), vehicle: Klucel (hydroxypropylcellulose) (HPC)) was 90 % of control and the T/C [7] was 100 % of control. The T/C (dose: 50.0 mg/kg/injection, schedule: Q04DX003 (ip), vehicle: Klucel (hydroxypropylcellulose) (HPC)) was 100 % of control and the T/C (dose: 100.0 mg/kg/injection, schedule: Q04DX003 (ip), vehicle: Klucel (hydroxypropylcellulose) (HPC)) was 104 % of control.

With C=C(C)[C@H]1Cc2c(ccc3c2O[C@@H]2COc4cc(OC)c(OC)cc4[C@@H]2C3=O)O1 the T/C (dose: 4.0 mg/kg/injection, schedule: Q01DX010 (ip), vehicle: saline) was 109 % of control, the T/C (dose: 10.0 mg/kg/injection, schedule: Q01DX009 (ip), vehicle: saline) was 95 % of control and the T/C (dose: 20.0 mg/kg/injection, schedule: Q01DX009 (ip), vehicle: saline) was 155 % of control. The T/C (dose: 40.0 mg/kg/injection, schedule: Q01DX009 (ip), vehicle: saline) was 120 % of control.

For COC(=O)C(Cc1ccccc1)NS(=O)(=O)c1ccc(C)cc1 (configuration not stated), the T/C (dose: 12.5 mg/kg/injection, schedule: Q01DX005 (ip), vehicle: saline with Tween-80) was 92 % of control, the T/C [1] was 90 % of control and the T/C [2] was 87 % of control and 92 % of control. For the same molecule, the T/C (dose: 200.0 mg/kg/injection, schedule: Q01DX005 (ip), vehicle: saline with Tween-80) was 111 % of control.

In the case of CN(C)CCC(O)c1c[nH]c2ccccc12 (configuration not stated), the T/C [10] is reported as 99 % of control, the T/C [11] is reported as 97 % of control and the T/C [18] is reported as 90 % of control.

In the case of O=C1C2CC=CCC2C(=O)N1SC(Cl)(Cl)Cl (configuration not stated), the T/C [12] is reported as 120 % of control and the T/C [13] is reported as 120 % of control.

In the case of O=[N+]([O-])c1ccc(CCSCCc2ccc([N+](=O)[O-])cc2)cc1, the T/C (dose: 50.0 mg/kg/injection, schedule: Q01DX005 (ip), vehicle: Klucel (hydroxypropylcellulose) (HPC)) is reported as 104 % of control, the T/C (dose: 100.0 mg/kg/injection, schedule: Q01DX005 (ip), vehicle: Klucel (hydroxypropylcellulose) (HPC)) is reported as 97 % of control and the T/C (dose: 200.0 mg/kg/injection, schedule: Q01DX005 (ip), vehicle: Klucel (hydroxypropylcellulose) (HPC)) is reported as 94 % of control.

With Fc1ccc(CSc2ncnc3c2ncn3C2CCCCO2)cc1 (configuration not stated) the T/C (dose: 100.0 mg/kg/injection, schedule: Q04DX003 (ip), vehicle: other) was 100 % of control, the T/C [8] was 100 % of control and the T/C (dose: 200.0 mg/kg/injection, schedule: Q04DX003 (ip), vehicle: other) was 100 % of control. The T/C (dose: 400.0 mg/kg/injection, schedule: Q04DX003 (ip), vehicle: other) was 105 % of control.

For Cc1ccccc1-c1nc2c(N)nc(N)nc2nc1N, the T/C [10] was 122 % of control, the T/C [11] was 163 % of control and the T/C (dose: 264.0 mg/kg/injection, schedule: Q04DX003 (ip), vehicle: saline with Tween-80) was 100 % of control and 104 % of control. For the same molecule, the T/C [18] was 200 % of control, the T/C [19] was 118 % of control and the T/C (dose: 600.0 mg/kg/injection, schedule: Q04DX003 (ip), vehicle: saline with Tween-80) was 118 % of control.

CCCN1CSC(=S)N(Cc2ccccc2)C1 was tested, and the T/C [10] was 90 % of control, the T/C [16] was 95 % of control and the T/C [11] was 100 % of control. For the same molecule, the T/C [17] was 95 % of control, the T/C [18] was 90 % of control and the T/C [19] was 95 % of control.
